Literature values as cited in US20090078254A1, “Anesthetic Agent Recovery” (priority 2004, published 2009).
Read-outs that look alike come from different tables or passages of the source.

Columns and labels:
[1] = tested on: population moving in response to pain; conditions: for MAC (Minimum Alveolar Concentration of gas that prevents 50% of population from moving in response to pain): adding 50% MAC N2O drops MAC value of agent by 50%
[2] = produces inorganic fluoride
[3] = not given; remark: listed apart in the source
[4] = not given; remark: listed apart in the source
[5] = in vitro and in vivo studies

Stability In Moist Soda Lime (40° C.) | Stability In Moist Soda Lime (60° C.) | Stability In Moist Soda Lime (80° C.) | Stability in the presence of standard CO2 absorbents (soda lime, baralime) | metabolism [2] | SVP@20° C. [3] | Structure (SMILES) | MAC (Minimum Alveolar Concentration of gas that prevents 50% of population from moving in response to pain) [1] | Liver damage ([4]; byproducts of reductive metabolism) | Malignant hyperthermia ([4]; in vivo) | SVP@18° C. [3] | SVP@22° C. [3] | SVP@24° C. [3] | SVP@26° C. [3] | Potency relative to ISOFLURANE ([1]; fraction of isoflurane potency) | Compound stability [5] | saturated vapor pressure ([3]; room temperature)
Unstable | Unstable | Unstable | unstable | 5% | 157 mm Hg | FCOC(C(F)(F)F)C(F)(F)F [SEVOFLURANE] | 1.5-2.5% | – | – | – | – | – | – | – | – | –
– | – | – | – | – | – | FC(F)(F)C(Cl)Br (stereo not drawn) [HALOTHANE] | – | can cause liver damage | potential to cause malignant hyperthermia | – | – | – | – | – | – | –
Stable | Stable | Stable | – | – | 240 mm Hg | FC(F)OC(Cl)C(F)(F)F (stereo not drawn) [ISOFLURANE] | 1-1.6% | – | – | 219 mm Hg | 262 mm Hg | 286 mm Hg | 312 mm Hg | – | – | –

Structure (SMILES) | Stability In Moist Soda Lime (40° C.) | Stability In Moist Soda Lime (60° C.) | Stability In Moist Soda Lime (80° C.) | Stability in the presence of standard CO2 absorbents (soda lime, baralime) | metabolism [2] | SVP@20° C. [3] | MAC (Minimum Alveolar Concentration of gas that prevents 50% of population from moving in response to pain) [1] | Liver damage ([4]; byproducts of reductive metabolism) | Malignant hyperthermia ([4]; in vivo) | SVP@18° C. [3] | SVP@22° C. [3] | SVP@24° C. [3] | SVP@26° C. [3] | Potency relative to ISOFLURANE ([1]; fraction of isoflurane potency) | Compound stability [5] | saturated vapor pressure ([3]; room temperature)
FC(F)OC(F)C(F)(F)F (stereo not drawn) [DESFLURANE] | Stable | Stable | Sl. Unstable | – | – | 700 mm Hg | 5-8% | – | – | 653 mm Hg | 750 mm Hg | 804 mm Hg | 860 mm Hg | about ⅕ | extremely stable | ~1.0 atm.
